Assay [1] has as its system Mus musculus. The assay can be described thus: Median Survival days of mice infected with L1210 leukemia cells at dose 10 mg/kg relative to that of 10 days for control in expt 2. Type of assay: functional.
Assay [2] has as its system Mus musculus. The assay is described as follows: Increase in life span of mice with L1210 leukemia cells at a dose of 7.5 mg/kg in exp 2. Type of assay: functional.
Assay [3] addresses T1, Dihydrofolate reductase (Mus musculus, UniProt P00375).
T1 sequence (P00375 whole entry): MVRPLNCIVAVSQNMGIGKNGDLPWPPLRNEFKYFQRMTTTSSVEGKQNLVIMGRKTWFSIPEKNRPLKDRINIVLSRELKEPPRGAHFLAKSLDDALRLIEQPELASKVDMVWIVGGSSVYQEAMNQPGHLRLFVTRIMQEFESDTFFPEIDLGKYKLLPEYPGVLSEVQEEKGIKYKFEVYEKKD
The assay can be described thus: biochemical.
Description: Compound was tested for its inhibitory concentration to inhibit the enzyme Dihydro Folate Reductase (DHFR) from murine L1210 leukemia cells.

For assay [4], the species on record is Mus musculus. The assay is described as follows: Compound was tested against weight change in mice with L1210 leukemia cells on 7 th Day at Dose 10 mg / kg. The note with it: at 10 mg/kg. The format is functional.
Assay [5] is filed under the species Mus musculus. The assay is described as follows: Compound was tested against weight change in mice with L1210 leukemia cells on 10 th Day at Dose 20 mg / kg. The note with it: at 20 mg/kg.
Assay [6] has as its system L1210. The assay can be described thus: Compound was tested for its inhibitory concentration to inhibit the growth of wild type L1210 cells. Type of assay: functional, cell-based, Mus musculus.
The subject of assay [7] is Mus musculus. The assay is described as follows: Median Survival days of mice infected with L1210 leukemia cells at dose 15 mg/kg relative to that of 10 days for control in expt 2. The format is functional.
Assay [8] concerns Mus musculus. The assay is described as follows: Increase in life span of mice with L1210 leukemia cells at a dose of 15 mg/kg in exp 2. Type of assay: functional.
For assay [9], the system named is L1210. The assay is described as follows: Compound was tested for its inhibitory concentration to inhibit the growth of wild type L1210 cells and a subline (L1210 / R81). The format is functional, cell-based. The note with it: Mus musculus.
The species named for assay [10] is Homo sapiens. The assay can be described thus: Compound was tested for its inhibitory concentration against human leukemic lymphoblasts (CEM Cells) and a resistant subline (CEM / MTX); Mean of two assays. The note with it: CCRF-CEM. The format is functional.
Assay [11] is filed under the species Mus musculus. The assay can be described thus: Compound was tested against weight change in mice with L1210 leukemia cells on 7 th Day at Dose 15 mg / kg. The format is functional. The note with it: at 15 mg/kg.
In assay [12] the test system is Mus musculus. The assay can be described thus: Median Survival days of mice infected with L1210 leukemia cells at dose 10 mg/kg relative to that of 9 days for control in expt 1. The format is functional.
The subject of assay [13] is Mus musculus. The assay can be described thus: Increase in life span of mice with L1210 leukemia cells at a dose of 10 mg/kg in exp 2. Type of assay: functional.
Assay [14] deals with Mus musculus. The assay can be described thus: Median Survival days of mice infected with L1210 leukemia cells at dose 7.5 mg/kg relative to that of 10 days for control in expt 2. Type of assay: functional.
The species entered for assay [15] is Homo sapiens. The assay is described as follows: Compound was tested for its inhibitory concentration against human leukemic lymphoblasts (CEM Cells); Mean of two assays. The format is functional. The note with it: CCRF-CEM.
The species named for assay [16] is Mus musculus. The assay is described as follows: Compound was tested against weight change in mice with L1210 leukemia cells on 10 th Day at Dose 7.5 mg / kg. The note with it: at 7.5 mg/kg.
Assay [17] has as its system Mus musculus. The assay can be described thus: Median Survival days of mice infected with L1210 leukemia cells at dose 20 mg/kg relative to that of 9 days for control in expt 1. Type of assay: functional.
Assay [18] addresses T2, Dihydrofolate reductase (Mus musculus) (UniProt P00375).
T2 sequence (whole entry): T1 sequence (P00375 whole entry)
The note with it: L1210.
Description: Compound was tested for inhibition of the enzyme DiHydroFolate Reductase (DHFR) from murine L1210 leukemia cells

Assay [19] deals with Mus musculus. The assay is described as follows: Increase in life span of mice with L1210 leukemia cells at a dose of 80 mg/kg. The format is functional.
For assay [20], the species on record is Mus musculus. The assay can be described thus: Compound was tested against weight change in mice with L1210 leukemia cells on 10 th Day at Dose 60 mg / kg. The note with it: at 60 mg/kg.
In assay [21] the test system is Mus musculus. The assay is described as follows: Median Survival days of mice infected with L1210 leukemia cells at dose 60 mg/kg relative to that of 10 days for control. The format is functional.
For assay [22], the species on record is Mus musculus. The assay can be described thus: Compound was tested against weight change in mice with L1210 leukemia cells on 10 th Day at Dose 70 mg / kg. The note with it: at 70 mg/kg.
The species entered for assay [23] is Mus musculus. The assay is described as follows: Compound was tested against weight change in mice with L1210 leukemia cells on 10 th Day at Dose 50 mg / kg. The note with it: at 50 mg/kg.
For assay [24], the system named is Mus musculus. The assay can be described thus: Increase in life span of mice with L1210 leukemia cells at a dose of 80 mg/kg; Toxic. Type of assay: functional, organism-based. Details: dose 80 mg/kg.
The species entered for assay [25] is Mus musculus. The assay can be described thus: Compound was tested against weight change in mice with L1210 leukemia cells on 10 th Day at Dose 80 mg / kg. The note with it: at 80 mg/kg.
Assay [26] deals with Mus musculus. The assay is described as follows: Median Survival days of mice infected with L1210 leukemia cells at dose 50 mg/kg relative to that of 10 days for control. The format is functional.
For assay [27], the system named is Mus musculus. The assay is described as follows: Median Survival days of mice infected with L1210 leukemia cells at dose 70 mg/kg relative to that of 10 days for control. The format is functional.
The test system of assay [28] is Mus musculus. The assay is described as follows: Increase in life span of mice with L1210 leukemia cells at a dose of 50 mg/kg. Type of assay: functional.
The test system of assay [29] is Mus musculus. The assay can be described thus: Median Survival days of mice infected with L1210 leukemia cells at dose 70 mg/kg relative to that of 10 days for control; Toxic. On the set-up: dose 70 mg/kg. The format is functional, organism-based.
The species entered for assay [30] is Homo sapiens. The assay is described as follows: Compound was tested for its inhibitory concentration against human leukemic lymphoblasts (CEM Cells) and a resistant subline (CEM / MTX). Type of assay: functional. The note with it: CCRF-CEM.
Assay [31] has as its system Mus musculus. The assay can be described thus: Increase in life span of mice with L1210 leukemia cells at a dose of 20 mg/kg. Type of assay: functional.
Assay [32] deals with Mus musculus. The assay is described as follows: Median Survival days of mice infected with L1210 leukemia cells at dose 20 mg/kg relative to that of 9 days for control. The format is functional.
The species named for assay [33] is Homo sapiens. The assay is described as follows: Compound was tested for its inhibitory concentration against human leukemic lymphoblasts (CEM Cells). The format is functional. The note with it: CCRF-CEM.
Assay [34] concerns Mus musculus. The assay is described as follows: Median Survival days of mice infected with L1210 leukemia cells at dose 80 mg/kg relative to that of 9 days for control. The format is functional.
Assay [35] concerns Mus musculus. The assay is described as follows: Increase in life span of mice with L1210 leukemia cells at a dose of 40 mg/kg. The format is functional.
Assay [36] concerns Mus musculus. The assay is described as follows: Median Survival days of mice infected with L1210 leukemia cells at dose 40 mg/kg relative to that of 9 days for control. Type of assay: functional.
The species entered for assay [37] is Homo sapiens. The assay is described as follows: Compound was tested for its inhibitory concentration against human leukemic lymphoblasts (CEM Cells). The format is functional. The note with it: CCRF-CEM.
The test system of assay [38] is L1210. The assay can be described thus: cells. The note with it: Mus musculus.
Description: Compound was tested for its inhibitory concentration to inhibit the growth of wild type L1210 cells; Range=0.01 to 0.03

The structures appear in SMILES notation. Several values for one entry are separate records, joined by “and”; a condition that tells them apart may be missing. Identical values can stand only once.

For the compound `Nc1nc(N)c2nc(CNc3ccc(C(=O)NC(CCC(=O)Nc4ccccc4)C(=O)O)cc3)cnc2n1` (configuration not stated), the Survival came out at 15 days in [1]; 13 days in assay [7]; 12 days in assay [12]; 13 days in [14]; 12 days in assay [17]. Besides, the ILS at 7.5 mg/kg in assay [2] was 30%. Moreover, the IC50 (in general, the concentration needed to halve the response being measured) amounted to 60 nM in [3]; 3.5 nM in assay [6] (Mus musculus, L1210); 3.6 nM in assay [6] (l1210); 10000 nM in assay [9]; 4700 nM in assay [10]; 180 nM in assay [15]. Further, the Weight change is 17% and 6% in assay [4]; 0% in assay [5]; 2% in assay [11]; 4% in [16]. Moreover, in assay [8], the ILS at 15 mg/kg stood at 30%. In assay [13], the ILS at 10 mg/kg stood at 50%. In addition, in assay [18], the IC50/[E] amounted to 1.5.
Regarding `Nc1nc(N)c2nc(CNc3ccc(C(=O)NC(CCC(=O)NCc4ccc(Cl)c(Cl)c4)C(=O)O)cc3)cnc2n1` (configuration not stated), the ILS at 80 mg/kg in assay [19] was 50%. The Weight change in assay [20] is on record as 0%; in [22], -3%; in assay [23] it was 2%; in assay [25], -16%. Also, the IC50 was 130 nM in [3]; 46 nM in assay [6] (Mus musculus, L1210); 34 nM in assay [6] (l1210); 32000 nM in assay [9]. For the same compound, the Survival in assay [21] was 17 days; in [26], 15 days; in assay [27], 21 days; in [29] it was “Toxic”. In addition, in assay [24], the ILS result is “Toxic”. In addition, the ILS at 50 mg/kg in assay [28] was 70%. In addition, the IC50/[E] in [18] was 3.3.
Take `Nc1nc(N)c2nc(CNc3ccc(C(=O)NC(CCC(=O)N[C@]45C[C@H]6C[C@H](C[C@H](C6)C4)C5)C(=O)O)cc3)cnc2n1` (some centres not stated): the IC50 in assay [30] was 16000 nM; in [3], 100 nM; in assay [6] (Mus musculus, L1210), 680 nM; in [6] (l1210), 510 nM; in [9] it was 25000 nM; in assay [33], 4500 nM. For the same compound, the ILS at 80 mg/kg in assay [19] came out at 22%. The ILS at 20 mg/kg in assay [31] is -11%. For the same compound, the Survival in assay [32] stood at 8 days; in assay [34], 10 days; in assay [36], 9 days. Moreover, the Weight change in [25] amounted to 17%. Moreover, the IC50/[E] in assay [18] is 2.5. Moreover, the ILS at 40 mg/kg in assay [35] came to 0%.
`CN(Cc1cnc2nc(N)nc(N)c2n1)c1ccc(C(=O)N[C@@H](CCC(=O)O)C(=O)O)cc1` [METHOTREXATE]: the half-maximal inhibitory concentration (IC50) in assay [30] was 6600 nM; in [37], 32 nM; in assay [38] it was 30 nM.

(Values after ChEMBL document CHEMBL1123432, “Methotrexate analogues. 28. Synthesis and biological evaluation of new gamma-monoamides of aminopterin and methotrexate” (J Med Chem, 1986).)
